As for `Cc1cccc(C(=O)NC(C)C)c1NC(=O)c1cnc(C(F)(F)F)nc1C` [Example 5, 4-Methyl-N-[2-methyl-6-[[(1-methylethyl)amino]carbonyl]phenyl]-2-(trifluoromethyl)-5-pyrimidinecarboxamide], the melting point – broadly, the temperature, or range, at which the solid turns liquid – fell in the range of 216 to 217 °C.
